Measured values as given in US7691572B2, “Method and kit for detecting resistance to antiviral drugs” (priority 1998, dated 2010).

Test system: HIV-1 reverse transcriptase
Assay: Amp-RT assay, inhibition by 3TC-TP, reference viruses
Type: biochemical
Excerpt: The phenotypic assay used in this example was based on the analysis of the susceptibility of HIV-1 reverse transcriptase activity from plasma to inhibition by 3TC-TP.
The assay detects reverse transcriptase activity by using a nonretroviral heteropolymeric RNA template derived from the encephalomyocarditis virus (EMCV) genome, and a complementary EMCV-specific DNA oligoprimer. The RT-generated EMCV cDNA is detected by PCR amplification and internal oligoprobing of the PCR product with an EMCV-specific probe.
Amp-RT detects reverse transcriptase activity by using a heterologous RNA template derived from the encephalomyocarditis virus (EMCV), a complementary DNA oligoprimer, and PCR amplification of reverse transcriptase-generated EMCV cDNA. […] To determine the susceptibility of the reverse transcriptase to 3TC-TP, an additional Amp-RT reaction was made in the presence of 3TC-TP, with concentrations of 3TC-TP ranging from 0.1 to 10 μM. […] PCR amplification of reverse transcriptase products was made as follows after the addition of 200 μM of each dNTP. A volume of 50 μl of PCR buffer containing 2.5 units of Taq polymerase, 100 ng of the sense primer EMCF1, and 200 μM of each dNTP was added to the reverse transcriptase mixture.
Wild type HIV-1SUM9, and multiple dideoxy nucleoside-resistant HIV-1SUM8 (Q151M mutation), HIV-1SUM12 (F77L/F116Y/Q151M) and HIV-1SUM13 (A62V/V751/F77L/F116Y/Q151M) MICs were provided by Dr. Mitsuya as described by Shirasaka et al., Proc. Natl. Acad. Sci. USA 92: 2398-2402 (1995). The synthesis and preparation of 3TC-TP were carried out as described by Schinazi et al., Antimicrob. Agents Chemother. 36: 2423-2431 (1992). The crude 3TC-5-TP was purified by FPLC using a HiLoad 26/10Q Sepharose Fast Flow™ Pharmacia chromatography column (Pharmacia, Piscataway, N.J.) and gradient of TEAE buffer (pH 7.0). The compound was characterized by UV spectroscopy, proton and phosphorous NMR, mass spectroscopy and HPLC.
Inhibition of reverse transcriptase by 3TC-TP results from the ability of 3TC-TP to act as a competitive inhibitor for 2′-deoxycytidine-5′-triphosphate (dCTP) and chain terminator as described by Arts and Wainberg, Antimicrob. Agents Chemother. 40: 527-540 (1996). To determine the optimal ratio of 3TC-TP and dCTP needed to inhibit wild type HIV-1 reverse transcriptase, but not 3TC-resistant reverse transcriptase, reverse transcriptase were tested from a wild type (xxBRUpitt) and a 3TC-resistant (M184Vpitt) HIV-1 in the presence of increasing concentrations of 3TC-TP (from 0.1 to 10 μM) and a fixed concentration of dCTP (5 μM).

[1] = 5 μM 3TC-TP, wild type HIV-1, 10^−6 units of RT activity

## Nc1ccn([C@@H]2CS[C@H](COP(=O)(O)OP(=O)(O)OP(=O)(O)O)O2)c(=O)n1 [3TC-TP, 3TC-5′-triphosphate]
5 μM 3TC-TP, 3TC-resistant HIV-1 (M184Vpitt), high or low input of RT
  inhibition of reverse transcriptase: No significant inhibition
5 μM 3TC-TP, mixture with 25% 3TC-resistant (M184Vpitt) virus in wild type xxBRUpitt
  inhibition of RT activity: 87%
5 μM 3TC-TP, mixture with 75% 3TC-resistant (M184Vpitt) virus in wild type xxBRUpitt
  inhibition of RT activity: 26%
[1]
  drop in Amp-RT virus load: 2.35 log10
  residual reverse transcriptase activity (of control without 3TC-TP): 0.4%
5 μM 3TC-TP, wild type xxBRUpitt, 10^−7 and 10^−8 units of RT activity
  inhibition of reverse transcriptase: complete inhibition
HIV-1SUM8 (Q151M)
  IC90 relative to reference viruses: approximately two-fold higher
HIV-1SUM12, three MD resistance mutations (F77L/F116Y/Q151M)
  increase in IC50 compared to wild type virus: six-
HIV-1SUM13, all five MD resistance mutations
  increase in IC50 compared to wild type virus: eight-fold
